Structures are written as SMILES.

The experiment relates to G. duodenalis BRIS/91/HEPU/1279. Nature of the experiment: Primary Giardia screen at 10 µM (live-cell imaging, automated counting). It is filed as cell-based, Giardia duodenalis. To be noted: for % Inhibition n=1 48h / % Inhibition n=1 24h: first singlicate assay; for % Inhibition n=2 24h / % Inhibition n=2 48h: re-assessment. The protocol:
Each compound was assessed in singlicate, at a final concentration of 10 μM (0.4 μL of a 5 mM stock; diluted to a final volume of 200 μL in culture medium; 0.2% DMSO). […] Plates were incubated in sealed chambers filled with 3% O2, 5% CO2 in N2 and growth was assessed at 24 and 48 h using live cell imaging and automated counting as previously described. Growth inhibition was calculated by subtracting media only background counts and determining percentage growth relative to vehicle (0.2% DMSO) controls. The reliability of these assays was assessed by calculating Z’ factors for each plate as previously described.

With `Cc1cnc(C(=O)N2CCN(C(=O)OC(C)(C)C)C(C)C2)cn1` (centres unmarked) [SN00774718], the “% Inhibition n=1 48h” value worked out at 0.0%.
Regarding `O=C(Cc1ccccc1[N+](=O)[O-])N1CCN(C(=O)c2ccc3c(c2)OCO3)CC1` [SN00774731], the “% Inhibition n=1 48h” value is reported as 9.4%.
For `COc1ccc(S(=O)(=O)N2CCN(C(=O)c3cc(C)n(C(C)C)c3C)CC2)cc1OC` [SN00774751], the “% Inhibition n=1 48h” value came out at 14.4%.
The same measure, in the same setting: next, `O=C(c1cc(=O)[nH]c2ccccc12)N1CCN(Cc2ccc3c(c2)OCO3)CC1` [SN00774920]: 0.0%; `O=C(C1CCCN1S(=O)(=O)c1ccc(Br)cc1)N1CCCCC1` (centres unmarked) [SN00774966]: 3.8%; `O=C(C1CCCN1C(=O)C1CCCCC1)N1CCCC(c2nc(-c3ccc(Cl)cc3)no2)C1` (centres unmarked) [SN00774977]: 0.0%.
Still for that read-out and setting: next, `O=C(C1CCCN(S(=O)(=O)c2ccccc2)C1)N1CCCC(C(F)(F)F)C1` (centres unmarked) [SN00774985]: 7.6%.
For `Cc1cc(C(=O)N2CCC(Oc3ccccc3)CC2)[nH]n1` [SN00775052], the “% Inhibition n=1 48h” value came to 4.5%.
The same measure, in the same setting: the figure for `O=C(c1cnn(-c2ccccc2)c1C1CC1)N1CCc2ccccc21` [SN00775113] is 0.5%; for `CSc1ccc(N2CC(C(=O)N3c4ccccc4CC3C)CC2=O)cc1` (centres unmarked) [SN00775126] it is 0.0%.
The same measure, in the same setting: the figure for `COC(=O)c1cccc2c1CCCN2C(=O)C1CC(=O)N(CCc2ccccc2)C1` (centres unmarked) [SN00775178] is 0.0%; for `COc1ccccc1N1CCN(C(=O)c2ccc3[nH]c(C)c(C)c3c2)CC1` [SN00775216] it is 36.6%.
`Cc1cc(C)n2nc(C(=O)N3CCC(CC(N)=O)CC3)nc2n1` [SN00775259]: the “% Inhibition n=1 48h” value worked out at 0.0%.
On the same count and under the same terms, next, `Cc1cc(C)n2nc(C(=O)N3CCCC(n4cncn4)C3)nc2n1` (centres unmarked) [SN00775270]: 8.1%; `CCOC(=O)c1sc2nc(CN3CCCCC3)nc(NCCC(=O)OC)c2c1C` [SN00775388]: 0.0%; `Cc1sc2nc(CN3CCC(C)CC3)nc(N(C)Cc3nc4ccsc4c(=O)[nH]3)c2c1C` [SN00775403]: 11.1%.
The same measure, in the same setting: the figure for `O=c1c(Br)c(N2CCCCC2)cnn1-c1ccccc1` [SN00775416] is 8.1%; for `COc1ccc(CN2CCCN(c3ncnc4ccccc34)CC2)cc1` [SN00775453] it is 0.0%.
On the same count and under the same terms, the figure for `O=c1[nH]c(CN2CCCCC2)nc2scc(-c3cccs3)c12` [SN00775605] is 0.0%; for `Cc1cccc(NC(=O)C2CCCN(c3c([N+](=O)[O-])c(C)nn3C)C2)n1` (centres unmarked) [SN00775639] it is 0.0%; for `Cc1nn(C)c(N2CCC(C(=O)NC(C)C(C)C)CC2)c1[N+](=O)[O-]` (centres unmarked) [SN00775640] it is 7.0%.
For the compound `Cc1noc(C)c1S(=O)(=O)N1CCC(C(=O)NCC(c2ccccc2)N(C)C)CC1` (centres unmarked) [SN00775659], the “% Inhibition n=1 48h” value was 0.0%.
Still for that read-out and setting: the figure for `Cc1cnc(CN2CCOC(CNc3cccnn3)C2)o1` (centres unmarked) [SN00775722] is 13.5%.
Still for that read-out and setting: the figure for `CCOc1cc(C(=O)Nc2ccc(C3=CSC4=NCCCN34)cc2)ccc1OC(F)F` [SN00775741] is 4.5%.
Still for that read-out and setting: the figure for `COCCc1ccc(Oc2nnnn2-c2ccccc2)cc1` [SN00775761] is 24.6%.
On to `c1ccc(-n2nnnc2Oc2ccc(-c3nc4ccccc4s3)cc2)cc1` [SN00775768], for which the “% Inhibition n=1 48h” value was 19.1%.
Same read-out and setting: next, `CCCCn1c(=O)[nH]c(=O)c2c1nc(-c1ccc(-c3cccc([N+](=O)[O-])c3)o1)n2CC` [SN00775781]: 37.2%.
Still for that read-out and setting: next, `CCCCn1c(=O)[nH]c(=O)c2c1nc(-c1ccc(-c3ccc([N+](=O)[O-])cc3Cl)o1)n2C` [SN00775787]: 19.8%.
The same measure, in the same setting: next, `CS(=O)(=O)N1CCCC1C(=O)OCc1cc(=O)n2c3c(sc2n1)CCCC3` (centres unmarked) [SN00775816]: 10.4%; `O=C(Cn1nnc(-c2cccs2)n1)NCc1ccc(Cl)cc1` [SN00775829]: 45.7%; `O=C(Cn1nnc(-c2cccs2)n1)c1ccc(Cl)s1` [SN00775834]: 2.4%.
`O=C(Nc1ccnn1Cc1ccccn1)c1cccnc1Oc1ccccc1` [SN00775947]: the “% Inhibition n=1 48h” value is 2.6%.
On the same count and under the same terms, the figure for `O=C(CCc1ccc(F)cc1)Nc1ccn(Cc2ccccn2)n1` [SN00775953] is 0.0%; for `O=S1(=O)CCC(Nc2nc(-c3ccccn3)nc3scc(-c4ccccc4)c23)C1` (centres unmarked) [SN00776030] it is 24.9%.
Take `NC1=Nc2nc3ccccc3n2C(c2ccc(-c3ccc(F)cc3)o2)N1` (centres unmarked) [SN00776094]: the “Average % Inhibition 24h” value was 0.0%, the “% Inhibition n=1 24h” value stood at 0.0%, the “% Inhibition n=2 24h” value is given as 0.0% and the “Average % Inhibition 48h” value came to 18.4%. Moreover, the “% Inhibition n=1 48h” value stood at 31.0% and the “% Inhibition n=2 48h” value amounted to 5.8%.
As for `CCn1c(C2NC(N)=Nc3nc4ccccc4n32)nc2ccccc21` (centres unmarked) [SN00776112], the “% Inhibition n=1 48h” value is 5.4%.
On the same count and under the same terms, next, `Cc1nc2sccn2c1-c1nc(-c2ccccc2)c(C(=O)c2ccc3c(c2)NC(=O)CO3)s1` [SN00776123]: 7.0%; `Cc1nc2sccn2c1-c1nc(-c2cccc3ccccc23)cs1` [SN00776128]: 37.4%; `CS(=O)(=O)c1ccc(-c2csc(-n3nccc3C(F)(F)F)n2)cc1` [SN00776135]: 7.7%.
The same measure, in the same setting: the figure for `COc1ccc(-c2csc(-n3nccc3C(F)(F)F)n2)cc1OC` [SN00776140] is 27.9%; for `Cc1cc(NC(=O)c2ccc([N+](=O)[O-])cc2)n(-c2nc3ccccc3[nH]2)n1` [SN00776157] it is 6.0%; for `NC1=C(c2nc3ccccc3s2)CC(=O)N1C1CC1` [SN00776353] it is 0.0%.
Turning to `Cc1sc(-n2cccc2)c(C(=O)NC2CCCCCC2)c1C` [SN00776382], the “% Inhibition n=1 48h” value was 0.0%.
The same measure, in the same setting: the figure for `CCc1nnc(NC(=O)c2ccsc2-n2c(C)ccc2C)s1` [SN00776389] is 11.7%; for `c1ccc(-c2cn3nc(-c4ccccc4)n4c3c2CCCC4)cc1` [SN00776412] it is 0.0%.
As for `FC(F)Oc1ccc(-c2csc(Cc3nnc4n3CCCCC4)n2)cc1` [SN00776417], the “Average % Inhibition 24h” value is given as 12.3%, the “% Inhibition n=1 24h” value was determined as 22.0%, the “% Inhibition n=2 24h” value turned out to be 2.6% and the “Average % Inhibition 48h” value stood at 19.6%. Besides, the “% Inhibition n=1 48h” value is 34.2% and the “% Inhibition n=2 48h” value amounted to 5.0%.
`CCN(c1ccc(-c2csc(Cc3nnc4n3CCCCC4)n2)cc1)S(C)(=O)=O` [SN00776436]: the “% Inhibition n=1 48h” value amounted to 17.3%.
For `O=C(C1=C(O)C(=O)N(CCN2CCOCC2)C1c1ccncc1)c1ccccc1` (centres unmarked) [SN00776455], the “% Inhibition n=1 48h” value is 0.7%.
Same read-out and setting: the figure for `CC1CN(c2nc3c(c(=O)[nH]c(=O)n3C)n2CC(=O)O)CC(C)O1` (centres unmarked) [SN00776554] is 4.6%; for `O=C(Nc1ccc2c(c1)OCO2)C1CCN(Cc2nnnn2-c2ccccc2)CC1` [SN00776590] it is 4.9%.
Same read-out and setting: next, `CCN(CC)CCN1C(=O)C(O)=C(C(=O)c2cccs2)C1c1ccc(C)o1` (centres unmarked) [SN00776616]: 15.0%; `CN(C)CCCN1C(=O)C(O)=C(C(=O)c2cc(Cl)ccc2O)C1c1ccco1` (centres unmarked) [SN00776642]: 14.6%; `CCOC(=O)c1sc(N2C(=O)C(O)=C(C(=O)c3ccco3)C2c2ccc(OC)cc2)nc1C` (centres unmarked) [SN00776656]: 6.9%.
`Cc1c(C(=O)Nc2cc(-c3ccncc3)n[nH]2)cccc1[N+](=O)[O-]` [SN00776775]: the “Average % Inhibition 24h” value was determined as 6.4%, the “% Inhibition n=1 24h” value is on record as 12.8%, the “% Inhibition n=2 24h” value is on record as 0.0% and the “Average % Inhibition 48h” value turned out to be 21.4%. For the same compound, the “% Inhibition n=1 48h” value was 37.2% and the “% Inhibition n=2 48h” value is 5.6%.
Take `O=C(Nc1nnc(-c2ccccn2)[nH]1)C1CC(=O)N(CC(F)(F)F)C1` (centres unmarked) [SN00776806]: the “% Inhibition n=1 48h” value amounted to 9.5%.
The same measure, in the same setting: the figure for `Cn1c(=O)[nH]c(=O)c2c1nc(N1CCNCC1)n2Cc1ccc(Br)cc1` [SN00776836] is 0.0%; for `O=C(CCC(=O)N1CCCC1c1nc2ccccc2[nH]1)c1ccccc1` (centres unmarked) [SN00776900] it is 28.7%; for `CCCNC(=O)CCNC(=O)N1CCCC1c1nc2cc(C)ccc2[nH]1` (centres unmarked) [SN00776915] it is 37.1%.
Consider `Cc1cccc(C)c1NC(=O)c1cc(-c2ccccc2)nc2c1cnn2Cc1cccnc1` [SN00776937], for which the “% Inhibition n=1 48h” value is 17.5%.
As to `CC(=O)Nc1cc(NC(=O)c2cc(-c3ccccc3)nc3c2cnn3Cc2cccnc2)ccc1F` [SN00776945], the “Average % Inhibition 24h” value is reported as 0.0%, the “% Inhibition n=1 24h” value is 0.0%, the “% Inhibition n=2 24h” value stood at 0.0% and the “Average % Inhibition 48h” value is 25.1%. The “% Inhibition n=1 48h” value came to 50.1% and the “% Inhibition n=2 48h” value is given as 0.0%.
As to `Cc1ccc(NC(=O)Cc2nc(-c3ccc4c(c3)CC(=O)N4C)cs2)cc1` [SN00777029], the “% Inhibition n=1 48h” value came out at 10.0%.
The same measure, in the same setting: next, `CN1C(=O)Cc2cc(-c3csc(N=C(N)N)n3)ccc21` [SN00777034]: 0.0%; `CS(=O)(=O)N1CCCc2cc(-c3csc(N)n3)ccc21` [SN00777047]: 7.2%.

Source of the values: paper PMC9775191, “A Subset Screen of the Compounds Australia Scaffold Library Identifies 7-Acylaminodibenzoxazepinones as Potent and Selective Hits for Anti-Giardia Drug Discovery” (Biomedicines, 2022).
